Key:
[1] = molecular target: T1, human ERβ (Homo sapiens, UniProt Q92731); assay: Radioligand binding competition with [3H]-17β-estradiol, ERβ; conditions: ligand binding domain expressed in E. coli lysate, read-out: ER-β IC50
T1 construct: M214-Q530 of human ERβ; Flag (C); made in house; host or cells: E. coli BL21(DE3); clarified lysate used

[2] = molecular target: T2, human ERα (Homo sapiens, UniProt P03372); assay: Radioligand binding competition with [3H]-17β-estradiol, ERα; conditions: ligand binding domain expressed in E. coli lysate, read-out: ER-α IC50
T2 construct: amino acids M250V595 of human ERα; His (N); made in house; host or cells: E. coli BL21(DE3); clarified lysate used
T2 sequence (P03372 250-595): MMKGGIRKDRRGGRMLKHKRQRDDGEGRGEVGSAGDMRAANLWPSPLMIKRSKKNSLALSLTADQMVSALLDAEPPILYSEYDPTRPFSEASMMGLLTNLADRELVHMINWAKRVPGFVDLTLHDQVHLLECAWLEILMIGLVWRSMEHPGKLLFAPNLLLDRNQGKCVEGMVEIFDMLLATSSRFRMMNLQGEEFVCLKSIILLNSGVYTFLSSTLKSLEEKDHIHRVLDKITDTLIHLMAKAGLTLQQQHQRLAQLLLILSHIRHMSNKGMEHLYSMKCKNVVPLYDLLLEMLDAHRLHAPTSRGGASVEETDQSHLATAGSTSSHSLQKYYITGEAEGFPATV

T1 sequence (Q92731 214-530): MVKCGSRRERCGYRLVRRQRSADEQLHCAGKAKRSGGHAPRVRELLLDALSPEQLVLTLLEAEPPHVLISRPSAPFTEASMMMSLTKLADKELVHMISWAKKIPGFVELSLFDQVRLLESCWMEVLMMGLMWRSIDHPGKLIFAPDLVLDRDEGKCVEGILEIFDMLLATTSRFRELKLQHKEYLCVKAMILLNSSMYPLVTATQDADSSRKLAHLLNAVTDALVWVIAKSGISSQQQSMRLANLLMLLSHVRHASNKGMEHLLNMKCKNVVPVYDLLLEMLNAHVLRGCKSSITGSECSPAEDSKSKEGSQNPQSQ

Row | IC50 [1] [nM] | IC50 [2] [nM] | melting point [°C] | SMILES
1 | 230 | 581 | 182 to 184 | Oc1ccc2oc(-c3ccc(O)c4ccccc34)nc2c1 [Example 6, 2-(4-Hydroxy-1-naphthyl)-1,3-benzoxazol-5-ol]
2 | > 5000 | 3170 | 146 to 148 | CCn1nc(-c2ccc3cc(O)ccc3c2)c2ccc(O)cc21 [Example 18, 1-Ethyl-3-(6-hydroxy-2-naphthyl)-1H-indazol-6-ol]
3 | 1510 | > 5000 | 290 to 292 | Cn1nc(-c2ccc3cc(O)ccc3c2)c2ccc(O)cc21 [Example 17, 3-(6-Hydroxy-2-naphthyl)-1-methyl-1H-indazol-6-ol]

From patent publication US6960607B2, “Naphthyl benzoxazoles and benzisoxazoles as estrogenic agents” (Wyeth, priority 2001, dated 2005)
